Data taken from patent US20090171621A1, “MEASURING THE DISTANCE BETWEEN DEVICES” (KONINKLIJKE PHILIPS ELECTRONICS, N.V., priority 2004, published 2009).

Columns and labels:
[1] = test system: ISA brown hens; assay: Egg laying performance of hens fed supplemented diet (egg weight, egg production); format: in vivo; conditions: for Egg weight / Egg production: 6 weeks; for Egg production: percent hen day production
Procedure: (§1) Healthy ISA brown hens, 45-week old, were assigned randomly to each dietary group (control group, 8 birds; experimental group, 6 birds each). Each bird was placed in an individual cage in an environmentally controlled room (25° C., 50% relative humidity, 16L:8D). The hens were allowed for 2 weeks in which to adapt to the feed with no additives and the housing. Control birds were fed a commercial diet based on corn and soybean meal (Table 1), while birds in experimental groups were fed diets supplemented with 0.003 or 0.03% of compactin (Sigma Aldrich Korea) for 6 weeks. Feed and water were provided ad libitum throughout the experiment. Feed consumption, egg production and egg weight were recorded daily. Egg production was expressed as percent hen day production; (100×number of eggs laid)/(number of hens×days).
The effects of 0.003% or 0.03% compactin on the laying performance of 45-week old ISA brown hens were investigated (Table 2). Egg weight was maintained at more than 60 grams after 6 weeks of oral administrations of compactin at both doses. […] Maintenance of laying performance with compactin feeding is of contrast to the previous art in which atorvastatin reduced egg production down to 70% after feeding for 5-week.
Egg production and yolk cholesterol analysis was performed with 0.003 and 0.03% pravastatin administered group with the same procedure as described in Example 1 above. Hen performance was investigated by measuring egg weight and egg production as in Table 4. Pravastatin group had maintained above 80% of egg production rate after 6-week administration, same as control.
Egg production and yolk cholesterol analysis was performed with the same procedure as described in Example 1 above except 0.5 and 1% of Streptomyces cell precipitates and bioconversion reaction broth were administered instead of compactin. Hen performance was investigated by measuring egg weight and egg production as in Table 6.

[2] = test system: ISA brown hens; assay: Egg cholesterol analysis (yolk weight, yolk cholesterol by gas chromatography) of hens fed supplemented diet; format: in vivo; conditions: for Cholesterol content / Cholesterol content change / Cholesterol concentration: 6 weeks; for Cholesterol content change: compared to control; for Cholesterol concentration: per gram of yolk; for Total yolk/egg cholesterol content, percentage change (reduction) compared to control: 0.03% in feed; for Egg york weight: 6 weeks (Table 5)
Procedure: as §1
For egg cholesterol analysis, eggs from each bird were collected and egg yolk was separated, weighed, and sampled for analysis. Lipids from eggs were extracted by the method of Folch et al. (1957). Briefly, one gram of sample was saponified with 3 mL of 33% KOH and incubated with 30 mL of 95% methanol in a 65° C. water bath for 90 min. After saponification, 10 mL hexane and 3 mL water were added, followed by vigorous shaking for 10 min. 5α-cholestan (Sigma C-8300) was used as an internal standard. Cholesterol content was determined by a gas chromatography (Shimadzu, Japan) using column VB-1 (30 m×0.25 mm×0.25 μm, VICI Inc.) with a split ratio of 100:1 and nitrogen as carrier gas for a column flow rate of 0.54 mL/min. Injector, column, and detector temperatures were 275° C., 290° C., and 340° C., respectively.
Egg production and yolk cholesterol analysis was performed with 0.003 and 0.03% pravastatin administered group with the same procedure as described in Example 1 above. Hen performance was investigated by measuring egg weight and egg production as in Table 4. […]

[3] = clinical trials / prescription drug development; cited from earlier work
[4] = test system: egg-laying chickens; conditions: previous art, cited from earlier work
[5] = test system: egg-laying chickens; conditions: previous art, cited from earlier work; remark: listed apart in the source

With `CC[C@H](C)C(=O)O[C@H]1CCC=C2C=C[C@H](C)[C@H](CC[C@@H]3C[C@@H](O)CC(=O)O3)[C@H]21` [Compactin, compactin] the “Egg production compared to the control group” value ([1]; in vivo) was “did not cause any difference in egg production”, the “Total yolk cholesterol content, percentage change (reduction) compared to control” value ([2]; 0.003% in feed, given without sign) was 16% and the Cholesterol content ([2]; 0.003 weight % added to feed) was 185 mg/egg. The Cholesterol content change ([2]; 0.003 weight % added to feed) was −16%, the Cholesterol concentration ([2]; 0.003 weight % added to feed) was 11.2 ± 0.3 mg/g and the “Total yolk/egg cholesterol content, percentage change (reduction) compared to control” value ([2]; given without sign) was 29%. The Cholesterol content ([2]; 0.03 weight % added to feed) was 156 mg/egg, the Cholesterol content change ([2]; 0.03 weight % added to feed) was −29% and the Cholesterol concentration ([2]; 0.03 weight % added to feed) was 10.5 ± 0.2 mg/g. For the same molecule, the Toxicity [3] was “serious toxicity”.

In the case of `CC(C)c1c(C(=O)Nc2ccccc2)c(-c2ccccc2)c(-c2ccc(F)cc2)n1CC[C@@H](O)C[C@@H](O)CC(=O)O` [atorvastatin], the “Cholesterol-lowering effect in eggs” value ([4]; 0.03-0.06% fed for 5 weeks) is listed as “satisfactory”, the “Egg production reduced down to” value ([5]; after feeding for 5-week) is listed as 70% and the “Decrease of egg production rate compared to control” value [5] is listed as “more than 15%”. For the same molecule, the “Effect of oral administration on egg production” value [5] was “decrease egg production”.

For `CC[C@H](C)C(=O)O[C@H]1C[C@@H](C)C=C2C=C[C@H](C)[C@H](CC[C@@H]3C[C@@H](O)CC(=O)O3)[C@H]21` [lovastatin], the “Reduction of egg cholesterol level” value ([4]; at its high dose) is listed as 3-6%.

In the case of pravastatin, the Egg weight ([1]; 0.003 weight % added to feed) is reported as 62.5 ± 0.3 g, the Egg production ([1]; 0.003 weight % added to feed) is reported as 84% and the Egg weight ([1]; 0.03 weight % added to feed) is reported as 58.8 ± 0.7 g. The Egg production ([1]; 0.03 weight % added to feed) was 82%, the “Egg production rate maintained” value ([1]; after 6-week administration, 0.003 and 0.03%) was “above 80%” and the Cholesterol content ([2]; 0.003 weight % added to feed) was 207 mg/egg. The Egg york weight ([2]; 0.003 weight % added to feed) was 16.5 ± 0.4 g, the Cholesterol content change ([2]; 0.003 weight % added to feed) was −6% and the Cholesterol concentration ([2]; 0.003 weight % added to feed) was 12.5 ± 0.5 mg/g. The “Total yolk/egg cholesterol content, percentage change (reduction) compared to control” value ([2]; given without sign) was 24%, the Cholesterol content ([2]; 0.03 weight % added to feed) was 167 mg/egg and the Egg york weight ([2]; 0.03 weight % added to feed) was 16.1 ± 0.4 g. For the same molecule, the Cholesterol content change ([2]; 0.03 weight % added to feed) was −24%, the Cholesterol concentration ([2]; 0.03 weight % added to feed) was 10.4 ± 0.5 mg/g and the Toxicity [3] was “not toxic”.
